Test results: patent US12097213B2, “Sequential treatment of cancers using 6-thio-dG, checkpoint inhibitors and radiation therapy” (The Board of Regents of the University of Texas System, priority 2020, dated 2024)

What was measured:
MC38 tumor cells = assay: MC38 tumor growth and treatment in mice; type: in vivo, mouse
Method: Tumor growth and treatment. A total of 5×10^5 MC38, 5×10^5 CT26 or 1×10^6 LLC cells were inoculated subcutaneously into right dorsal flanks of the mice in 100 μL phosphate buffered saline (PBS). Tumor-bearing mice were randomly grouped into treatment groups when tumors grew to around 100 mm^3. For 6-thio-dG single treatment, 3 mg/kg 6-thio-dG was intraperitoneally given on days 7, 8 and 9 in MC38 tumor and LLC tumor and on days 5, 6, 7 for CT26 tumor. For CSF1R, NKL.1, CD4+ and CD8+ T cell depletion, 200 μg of antibodies were intraperitoneally injected 1 day before treatment initiation and then twice a week for 2 weeks. For PD-L1 blockade combination therapy in MC38 model, 6-thio-dG was given on day 10 and day 11, 50 μg PD-L1 was intraperitoneally injected on day 13 and 17. For PD-L1 blockade combination therapy in LLC model, 6-thio-dG was given on day 4, 5, 6, 10 and 11, 200 μg PD-L1 was intraperitoneally injected on day 8 and 13. Tumor volumes were measured by the length (a), width (b) and height (h) and calculated as tumor volume=abh/2.

MC38 cells = assay: Colony formation assay; type: cell-based, mouse; details: 0.5 μM 6-thio-dG every three days for 13 days
Method: Colony formation assay. MC38 cells were seeded in three different concentrations on six well plates (1000-4000 cells/well) and treated with various drug concentrations every 3-4 days. Following 13 days treatment, cells were fixed and stained with 6% glutaraldehyde (Fisher Scientific) plus 0.5% crystal violet (Sigma) solution. After washing with tap water, cells were air-dried and images captured using a G-BOX (Syngene, model: G-BOX F3).

SMILES: Nc1nc2c(ncn2[C@H]2C[C@H](O)[C@@H](CO)O2)c(=S)[nH]1 [6-thio-dG, 6-thio-2′-deoxyguanosine]
- therapeutic effect on tumor growth with CD4+ T cell depletion (MC38 tumor cells; 200 μg anti-CD4, 3 mg/kg, days 7, 8, 9): marginal influence
- therapeutic effect on tumor growth with CD8+ T cell depletion (MC38 tumor cells; 200 μg anti-CD8, 3 mg/kg, days 7, 8, 9): completely abolished
- tumor growth with macrophage depletion (MC38 tumor cells; 200 μg anti-CSF1R, 3 mg/kg, days 7, 8, 9): worked even better
- therapeutic effect with NK cell depletion (MC38 tumor cells; 200 μg anti-NK1.1, 3 mg/kg, days 7, 8, 9): did not see an impact
- tumor growth (MC38 tumor cells; Batf3 deficient mice, 3 mg/kg, days 7, 8, 9): partially delayed tumor growth but was significantly less effective compared with WT mice
- mice tumor free (MC38 tumor cells; Batf3−/− mice): none
- anti-tumor effect (MC38 tumor cells; Ifnar1−/− mice, 3 mg/kg, days 7, 8, 9): abolished
- tumor growth (MC38 tumor cells; Mb21d1KO MC38 tumor cells in C57BL/6 mice, 3 mg/kg, days 7, 8, 9): still controlled tumor growth
- tumor growth (MC38 tumor cells; Myd88−/− mice, 3 mg/kg, days 7, 8, 9): controlled tumor growth well
- therapeutic effect on tumor growth (MC38 tumor cells; Rag1 knock out mice, 3 mg/kg, days 7, 8, 9): completely diminished
- tumor growth (MC38 tumor cells; Tmem173KO MC38 tumor cells in C57BL/6 mice, 3 mg/kg, days 7, 8, 9): still controlled tumor growth
- tumor growth (efficacy) (MC38 tumor cells; Tmem173−/− mice, 3 mg/kg, days 7, 8, 9): completely lost efficacy
- tumor growth (MC38 tumor cells; WT C57BL/6 mice, 3 mg/kg daily for three days (days 7, 8, 9), i.p., vs control tumor): significantly reduced
- mice completely tumor free (MC38 tumor cells; WT mice): 60%
- re-challenge with MC38 tumor (memory response) (MC38 tumor cells; cured mice rested 5 weeks, 10 times more tumor cells, opposite flank): spontaneously rejected re-challenged MC38 tumors
- tumor volume / tumor growth in advanced tumors (MC38 tumor cells; tumor sizes 150-200 mm^3, 6-thio-dG 3 mg/kg days 10, 11, 50 μg anti-PD-L1 days 13 and 17): difficult to control
- cells forming colonies (MC38 cells): less than 50%
